Test results from patent US20190134120A1, “METHODS FOR THE TREATMENT OF BLADDER CANCER” (Viralytics Limited, priority 2013, published 2019).
≈ marks a conversion by molar mass, not a printed value.

Tests used:
[1] = tested on: KU19-19 cells; assay: Mitomycin C IC50, KU19-19 cells; format: cell-based, Human; settings: 1x fold IC50 treatment concentration
[2] = tested on: CVA21; assay: CVA21 viral replication in 5637 cells on exposure to MMC (TCID50 titration on SK-MEL-28); format: cell-based; settings: CVA21 MOI 3, 0.4375 or 0.875 ug/ml Mitomycin C, 24 or 48 hours
Description: Monolayers of 5637 bladder cancer cells were plated and incubated at 37° C./5% CO2 overnight. The media was removed, and CVA21 added at an MOI of 3 in 10% FCS medium containing 0, 0.4375 or 0.875 ug/ml Mitomycin C. The cells were then incubated at 37° C. for 24 or 48 hours. The plates were then frozen at −80° C. for 1 hour or o/n and then thawed after which cell CVA21 lysate was serially diluted 1:10 in 2% DMEM. The different concentrations of lysate were then added to SK-MEL-28 cells which had previously been plated at 1×10^4 cells per well (100 μL) in a 96 well plate in 10% DMEM. The assay was then incubated at 37° C. for 5 days, after which the media was removed from the cells and 100 ul of 0.1% Glutaldehyde (Sigma) in PBS was added. After an incubation of 10 mins at RT, the Glutaldehyde solution was removed and 100 ul of 0.1% w/v Crystal Violet solution (in 20% Ethanol) was added in order to visualise the cells. Following another incubation of 10 mins at RT the excess Crystal Violet was removed with tap water. TCID50 was calculated by the Spearman & Kärber algorithm as described in Hierholzer & Killington (1996), Virology Methods Manual, p. 374.

[3] = tested on: ICAM-1; assay: FACS analysis of ICAM-1 (CD54) expression after Mitomycin C pulse; format: cell-based, Human
Description: (§1) FIG. 5: FACS analysis of ICAM-1/DAF express in bladder cancer cell line pulse with Mitomycin C (×0.5 fold IC50×1, ×2) for 1, 3, 7 and 24 hrs.
(§2) In brief, bladder cancer cells were plated at 5×10^5 cells per well (2 ml) of a 6 well tray and incubated at 37° C. for 24 hrs. The cells were treated with Mitomycin C (2× fold IC50 1× fold IC50, 0.5× fold IC50) and each concentration incubated at 37° C. for 1, 3, 7 and 24 hrs. Therefore T24 cells were treated 0.75, 0.375, 0.1876 ug/ml Mitomycin C, 5637 cells were treated with 0.68, 0.34, 0.17 ug/ml Mitomycin C and KU19-19 cells were treated with 1.4876, 0.7438, 0.3719 ug/ml. The cells were trypsinised and centrifuged for 3 mins at 1500 rpm to a pellet and re-suspended in FACS Buffer (PBS containing 10% BSA and 1% sodium azide). 100 ul of cells were added to appropriate wells in a 96-well round-bottomed plate. Antibodies were prepared at 1:10 in FACS buffer CD54 PE (BD: 347977) mIgG2b, CD55 PE (BD: 555694) mIgG2a and Isotype controls. […] Samples were read on a MACSQuant™ Analyzer (Bench top flow cytometer).
(§3) Exposure to the chemotherapy agent Mitomycin C, up-regulates both ICAM-1 and DAF at the RNA level (FIG. 4b). To mimic patient exposure to Mitomycin C T24, RU19-19 and 5637 cells were pulsed with drug for 1, 3, 7, 24 hrs and ICAM-1 and DAF expression was measured by FACS analysis at 24 hrs.

[4] = tested on: DAF; assay: QPCR for DAF expression after Mitomycin C; format: cell-based, Human; settings: 5637 cancer cell line exposed to Mitomycin C
Description: (§4) FIGS. 4A-B: QPCR for ICAM-1/DAF expression. FIG. 4a) On 5637 & T24 cancer cell lines 24 hrs after irradiation (Gy 4-10). FIG. 4b) On 5637 cancer cell line exposed to Mitomycin C.
as §3

[5] = tested on: ICAM-1; assay: QPCR for ICAM-1 expression after Mitomycin C; format: cell-based, Human; settings: 5637 cancer cell line exposed to Mitomycin C
Description: as §4, §3

[6] = tested on: T24 cells; assay: Mitomycin C IC50, T24 cells; format: cell-based, Human; settings: 1x fold IC50 treatment concentration
[7] = tested on: DAF; assay: FACS analysis of DAF (CD55) expression after Mitomycin C pulse; format: cell-based, Human; settings: T24, RU19-19 and 5637 cells; short pulse (1-3 hrs); measured at 24 hrs
Description: as §1, §2, §3

[8] = tested on: 5637 cells; assay: Mitomycin C IC50, 5637 cells; format: cell-based, Human; settings: 1x fold IC50 treatment concentration

CO[C@@]12[C@H](COC(N)=O)C3=C(C(=O)C(C)=C(N)C3=O)N1C[C@@H]1N[C@@H]12 [Mitomycin C, mitomycin C]
IC50 [1]: 0.7438 µg/mL (≈ 2.22 µM)
effect on CVA21 viral replication [2]: enhanced viral replication
ICAM-1 expression by FACS ([3]; T24, RU19-19 and 5637 cells, short pulse (1-3 hrs), measured at 24 hrs): strongly amplified
ICAM-1 amplification ([3]; one hour pulse of MMC, present from at least 4 hours after exposure): strong ICAM-1 amplification
DAF expression at the RNA level [4]: up-regulates
ICAM-1 expression at the RNA level [5]: up-regulates
IC50 [6]: 0.375 µg/mL (≈ 1.12 µM)
DAF expression by FACS [7]: strongly amplified
IC50 [8]: 0.34 µg/mL (≈ 1.02 µM)
